Laboratory results: patent publication US3996205A, “Aminoglycoside antibiotics and intermediates” (The Upjohn Company, priority 1975, dated 1976)

Legend:
[1] = test system: S. typhi TG-3; test: microplate test in BHI agar, S. typhi TG-3; format: cell-based; conditions: table 4, same conditions
Method: (§1) Compounds were also tested in a standard microplate test in Brain Heart Infusion (BHI) Agar, at a concentration of 1 mg/ml. Incubation is at 37° and end points are read at 20 hours. Brain Heart Infusion Agar (supplied by Difco Laboratories, Detroit, Michigan, U.S.A.) has the following composition:
(§2) Compounds (7β), (7α) and (9) were tested again along with compounds (11) and (14β) against a neamine control using the same conditions as given above.

[2] = test system: K. pneumoniae UC 58; test: microplate test in BHI agar, K. pneumoniae UC 58; format: cell-based; conditions: tested again (table 4), same conditions
Method: as §1, §2

[3] = test system: S. hemolyticus UC 152; test: microplate test in BHI agar, S. hemolyticus UC 152; format: cell-based, Streptococcus hemolyticus; conditions: tested again (table 4), same conditions
Method: as §1, §2

[4] = test system: P. rettgeri UC 339; test: microplate test in BHI agar, P. rettgeri UC 339; format: cell-based; conditions: table 4, same conditions
Method: as §1, §2

NC[C@H]1O[C@H](O[C@H]2[C@H](O)[C@@H](O)[C@H](N)C[C@@H]2N)[C@H](N)[C@@H](O)[C@@H]1O [Neamine, neamine]
Minimum Inhibitory Concentration [1]: 15.6 µg/mL
Minimum Inhibitory Concentration [2]: 3.9 µg/mL
Minimum Inhibitory Concentration [3]: 3.9 µg/mL
Minimum Inhibitory Concentration [4]: 1000 µg/mL
